These results are taken from US11136320B2, “Fused ring derivative used as FGFR4 inhibitor” (JACOBIO PHARMACEUTICALS CO., LTD., priority 2019, dated 2021).

One data set is described as follows: PK analysis of rats. Format: in vivo. Conditions: rat, plasma, po, SD rats, p.o. (10 mg/kg). The method, then:
In the present invention, the pharmacokinetics experiment of the compounds in rats was performed using the SD rats (Vitolihua).
(1) Mode of administration: single gavage administration and intravenous injection administration.
(2) Dosage: 10 mg/kg in the gavage administration, 3 mg/kg in the intravenous injection administration.
Gavage administration: before administration, 15 min, 30 min, 1 h, 2 h, 4 h, 6 h, 8 h, 24 h; […]
(4) Sample processing: 200 μL of orbital blood was collected at each sampling time point. After anticoagulation with heparin, the blood was centrifuged at 5500 rpm for 10 min, and 60 μL of the supernatant was taken and put into the refrigerator at −80° C. for waiting for testing.
Samples obtained after administration of Compound 1 were tested using 4000 LC-MS/MS analyzer, wherein, the chromatographic separation conditions for testing were:
Samples obtained after administration of Compound 7 were tested using 4000 LC-MS/MS analyzer, wherein, the chromatographic separation conditions for testing were:
Samples obtained after administration of Compound 16 were tested using 4000 LC-MS/MS analyzer, wherein, the chromatographic separation conditions for testing were: […]

Data set [1] deals with Hepatoma cell Hep3B (high expression of FGFR4 and FGF19). Briefly: Hepatoma cell proliferation inhibition experiment (MTS method). Format: cell-based. As to conditions: Homo sapiens, Hep3B; 120 h incubation; read-out: Hep3B(IC50 μM). The source says:
In this experiment, the MTS method was used to test the inhibitory effect of the compounds on the proliferation of Hepatoma cell Hep3B (high expression of FGFR4 and FGF19), and the half inhibitory concentration IC50 of the compounds to Hep3B was obtained. The Hep3B cell line was purchased from ATCC, and the complete culture medium of the Hep3B cell line was MEM+10% FBS+1% PS. MEM cell culture medium, fetal bovine serum, and trypsin were purchased from Gibco, cell culture flasks were purchased from Greiner, and disposable Cell Counting Plate and Taittinger Blue Solution were purchased from Bio-Rad.
(1) 100 μl Hepatoma cell Hep3B suspension was seeded in a 96-well cell culture plate, and the density of each well was 2.0×10^4 cells/ml.
(3) A mixture of MTS (3-(4,5-dimethylthiazol-2-yl)-5-(3-carboxymethoxyphenyl)-2-(4-sulfophenyl)-2H-tetrazolium)/PMS (phenazine methosulfate) was added into each well for coloration, and MTS/PMS in the mixture was at a ratio of 20:1 (ml:ml). 30 μl of the mixture was added into each well of the culture plate above mentioned in step (2), then the culture plate was incubated for 3 h in the incubator.
(5) The inhibition rate was calculated by the […];
(6) According to the inhibition rate of the different concentrations, the IC50 values of the compounds were obtained by curve fitting.

Data set [2] is described as follows: PK/PD of NOD-SCID mouse (drug concentration in blood and in tumors). It is filed as in vivo. As to conditions: NOD-SCID, mouse, po, 50 mg/kg, p.o. (50 mg/kg); for AUC(0-t): read-out: AUC0-6 h; for concentration at 4 h / concentration at 6 h: tumor. The method, then:
This experiment conducted when the pharmacological experiment in vivo was performed by gavage administration, wherein, the blood samples and tumor samples were taken at different time points to detect drug concentration in blood and drug concentrations in tumors.
(1) Mode of administration: gavage administration;
(2) Dosage: 50 mg/kg in the gavage administration;
Three mice were sampled at each sampling point;
(4) Blood sample collection: 200 μL of orbital blood was collected at sampling time point for each blood sample. After anticoagulation with heparin, the blood was centrifuged at 5500 rpm for 10 mins. 60 μL of the supernatant was taken and put it into the refrigerator at −80° C. for waiting for testing.
Tumour sample collection: 200-300 mg of each tumor tissue was taken. The tumor weight was marked, quickly freezed in liquid nitrogen and placed into a refrigerator at −80° C. for waiting for testing.
Tumour sample processing: pure water was added into the tumor sample according to a ratio of […] between the weight of the tumor sample and the volume of pure water and then it was homogenized. The homogenate was stored at −90° C. to −60° C. until the sample was analyzed. After 5 μL of acetonitrile/water (v/v=1:1) was added into 50 μL of tumor sample homogenate, 200 μL of acetonitrile (containing Dexamethasone 100 ng/ml as internal standard, or containing Verapamil 2 ng/ml as internal standard) was added. After protein precipitation, the resulting mixture was vortexed for 2 mins at 4° C. with 4600 g, and then centrifuged for 15 mins to obtain the supernatant. 100 μL of the supernatant was taken and added into 200 μL of deionized water. 5500 LC/MS/MS analyser was used for sample injection and analysis, after vortexing for homogeneity. The conditions for chromatographic separation and mass spectrometric analysis were as follows: […]

The next data set concerns Hep3B. Briefly: Pharmacodynamic in vivo, Hep3B model tumor growth inhibition. Also on record: species or system NOD-SCID mice. Conditions: 60 mg/kg QD, gavage. The text has this:
The Hep3B cell line was purchased from ATCC; MEM cell culture medium, fetal bovine serum, and trypsin were purchased from Gibco; cell culture flasks were purchased from Greiner; and disposable Cell Counting Plate and taittinger Blue Solution Purchased from Bio-Rad. The disposable sterile syringe was purchased from Changzhou Jinlong Medical Plastic Instrument Co., Ltd, eye surgical scissors and eye surgical forceps were purchased from Shanghai Medical Instrument (Group) Co., Ltd. Surgical Instrument Factory, and 6-8 week old female NOD-SCID mice were purchased from Vitalivar.
a. One strain of Hep3B cells was taken out from the cell bank and MEM medium (MEM+10% FBS+1% PS) was used to recover the cells. The resuscitated cells were placed in a cell culture flask (the wall the flask was marked with the cell type, date, cultivator's name), and the cell culture flask was placed in a CO2 incubator (the temperature of the incubator was 37° C. and the CO2 concentration of the incubator was 5%);
b. When the cells covered about 90% of the bottom of the culture flask, passage was conducted. the cells were continued to cultivate in a CO2 incubator after passage. The above process was repeated until the number of the cell satisfied the requirements of pharmacodynamic in vivo;
c. The cultured cells were collected and counted using a BIO-Rad TC20 cell counter. According to the counting results, the cultured cells were resuspended with PBS and matrix gel (1:1) to obtain a cell suspension (density 5×10^7/ml), and the cell suspension was placed in an ice box for later use.
a. The cells were mixed well before seeding, and 0.5 ml of cell suspension was taken with a 1 ml syringe and bubbles in the cell suspension were removed. The syringe with the cell suspension was place on an ice pack for later use.
b. The NOD-SCID mice were set with the left hand, and the skin on the right back of the mice was disinfected with 75% alcohol. The inoculation was beginning after 30 seconds.
c. During inoculation, 1 mL syringe was on the right hand, and the cell suspension of Hep3B was inoculated subcutaneously into the right shoulder of the right back of the mouse at 0.1 mL/mouse. At inoculation interval, the syringe was placed on an ice pack and the mice were inoculated sequentially.
d. According to the tumor growth, the tumor was measured and the tumor size was calculated on the 12-15 days after inoculation.
Tumor volume calculation: tumor volume (mm^3)=length (mm)×width (mm)×width (mm)/2
e. When the tumors grew to an average volume of 100-150 mm^3, the mice were randomly divided into two groups according to tumor size and the weight of the mouse. […]
f. […] Tumors were measured and the mice were weighed twice a week after administration. […]

Molecules are shown by their SMILES.

For `COCCNc1cc(NC(=O)N2CCCc3cc(CN4CCN(C)CC4=O)c(C=O)nc32)ncc1C#N` [Reference compound, roblitinib, reference compound], the AUC(0-t) in the data set “PK analysis of rats” (read-out: Curve area AUC0-24 h) was 1590 ng·h/mL. The Cmax in “PK analysis of rats” (read-out: Drug concentration in blood Cmax) was 350 ng/mL. In data set [1], the IC50 is 0.024 µM. Also, in data set [2] (plasma, Hep3B model), the AUC(0-inf) stood at 29100 ng·h/mL, the Cmax was determined as 6200 ng/mL, the Tmax was 1 h and the half-life was 3.13 h. The AUC(0-t) in data set [2] (plasma, Hep3B model) worked out at 20200 ng·h/mL. Moreover, in data set [2] (plasma, SNU878 model), the Cmax is 5430 ng/mL, the Tmax came to 4 h and the AUC(0-t) was found to be 20400 ng·h/mL. In data set [2] (Hep3B model), this compound showed a concentration at 4 h of 64.4 ng/g and a concentration at 6 h of 44.1 ng/g. In data set [2] (SNU878 model), this compound gave a concentration at 4 h of 3560 ng/g and a concentration at 6 h of 1030 ng/g. Moreover, the TGI % in the data set on Hep3B came out at 97.7%.
